# Reference: PMC5104457, “ATP-Competitive MLKL Binders Have No Functional Impact on Necroptosis” (PLoS ONE, 2016)
# Biological target: T1, full length His-MBP-MLKL-3 (Homo sapiens, UniProt Q8NB16)
# T1 construct: The full length MLKL was prepared in baculovirus; made in house; host or cells: baculovirus-infected sf9 insect cells
# T1 sequence (Q8NB16 1-471): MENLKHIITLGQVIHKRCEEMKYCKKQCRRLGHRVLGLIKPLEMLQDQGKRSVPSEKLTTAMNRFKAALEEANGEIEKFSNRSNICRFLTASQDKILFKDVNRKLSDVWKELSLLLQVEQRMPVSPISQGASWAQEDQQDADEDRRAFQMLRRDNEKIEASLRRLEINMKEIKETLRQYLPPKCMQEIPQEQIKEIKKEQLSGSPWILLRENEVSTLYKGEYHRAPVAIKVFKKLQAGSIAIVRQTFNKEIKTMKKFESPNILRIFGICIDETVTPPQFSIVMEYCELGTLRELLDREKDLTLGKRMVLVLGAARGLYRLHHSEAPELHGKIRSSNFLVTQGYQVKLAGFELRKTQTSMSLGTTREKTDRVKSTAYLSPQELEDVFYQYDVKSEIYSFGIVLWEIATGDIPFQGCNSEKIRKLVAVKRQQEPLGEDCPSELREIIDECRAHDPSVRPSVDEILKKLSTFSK
# Test: Second harmonic generation (SHG) conformational assay, full length MLKL
# Settings: 10 μM compound, 20 minutes, mean ± SE
# Protocol: The full length MLKL was prepared in baculovirus using a bacmid DNA which was modified to include a Tev cleavable N-terminal His6 maltose binding protein (His-MBP) tag. His-MBP-MLKL-3 was expressed in baculovirus-infected sf9 insect cells grown in SF-900 II serum-free medium (Invitrogen). Cells were harvested by centrifugation 48 hours post-infection. The cells were resuspended in lysis buffer (50mM TRIS pH 8.0, 500mM NaCl, 10% glycerol, 1mM DTT and Roche EDTA-free protease inhibitor cocktail) and were lysed using a microfluidizer. The lysate was clarified by centrifugation at 20,000 x g for 1 hour at 4°C and the His-MBP-MLKL-3 was captured by batch binding to Nickel NTA resin overnight at 4°C. The resin was washed with buffer A (25mM TRIS pH 8.0, 250mM NaCl, 10% glycerol, 1mM DTT) and loaded into an XK column and washed until no non-specific unbound protein was detected. His-MBP-MLKL3 was eluted from the column using buffer A supplemented with 250mM imidazole pH 8.0 and analyzed by SDS-PAGE. […]
# Experiments were performed on a Biodesy Delta System. […] The fundamental is directed to an arrangement of prisms integrated with the custom, glass-bottomed Biodesy Delta Read Plates, where it undergoes total internal reflection (TIR) to generate the evanescent field at the glass-lipid bilayer interface. […]
compound,measurement,value
"CN(c1ccc(NC(=O)Nc2ccc(OC(F)(F)F)cc2)cc1)c1ccnc(Nc2cccc(S(N)(=O)=O)c2)n1 [cpd 1, reference compound]","% change in SHG intensity, Full-length HisMBP-MLKL-3",25.9 ± 1.6%
